Reference: patent US20210115104A1, “AMYLIN ANALOGUES” (Zealand Pharma A/S, priority 2015, published 2021)
*1 amine or outer side, *2 acyl side, *3 side chain or, on linkers, in order; H or OH if unused. Where a SMILES comes first, the peptide text is derived from it. Bridges are numbered along the chain shown (N, C = ends). [ ]: non-standard residue; d: D form. The star is where a group is joined. C20 diacid = O=C(O)CCCCCCCCCCCCCCCCCCC(=O)*; γGlu = O=C(O)[C@H](CCC(=O)[*:2])N[*:1]; Hyp = O=C(O)[C@@H]1C[C@@H](O)CN1; NMeI = CC[C@H](C)[C@H](NC)C(=O)O; Sar = CNCC(=O)O

Assays:
[1] = target: T1, human amylin receptor 3 (hAMYR3), hCTR2 co-expressed with hRAMP3 (Homo sapiens, UniProt O60896+P30988); test: hAMYR3 cAMP assay (AlphaScreen) in COS7 cells; type: cell-based; conditions: cAMP induction, COS7 cells expressing hAMYR3; Table 1; read-out: hAMYR3 EC50
T1 construct: expressed in transfected cells
T1 sequence (P30988 25-474): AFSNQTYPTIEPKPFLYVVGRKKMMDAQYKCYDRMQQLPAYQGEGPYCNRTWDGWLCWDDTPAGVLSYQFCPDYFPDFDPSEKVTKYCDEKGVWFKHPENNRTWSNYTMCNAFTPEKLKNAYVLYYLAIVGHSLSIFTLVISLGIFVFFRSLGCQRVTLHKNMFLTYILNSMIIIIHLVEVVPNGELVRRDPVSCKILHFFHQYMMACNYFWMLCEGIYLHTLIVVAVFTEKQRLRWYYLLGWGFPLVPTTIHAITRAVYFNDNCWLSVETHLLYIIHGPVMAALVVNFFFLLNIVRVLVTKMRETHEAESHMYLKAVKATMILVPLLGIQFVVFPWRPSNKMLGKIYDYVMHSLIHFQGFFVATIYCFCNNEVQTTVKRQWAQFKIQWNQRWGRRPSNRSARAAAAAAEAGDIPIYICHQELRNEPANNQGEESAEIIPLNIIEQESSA
T1 sequence (O60896 24-148 partner): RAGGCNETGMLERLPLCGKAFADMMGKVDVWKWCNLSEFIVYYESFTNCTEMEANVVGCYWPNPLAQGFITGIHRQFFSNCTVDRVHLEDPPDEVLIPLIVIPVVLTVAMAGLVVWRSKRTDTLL
Source text: The cell line COS7, originating from African Green Monkey kidney fibroblast cells, was used for establishment of the stable cell lines described below. The COS7 cellular background was used due to it being RAMP naïve, and as such it provides the best available system for testing of the monomeric hCTR and different heterodimeric amylin receptor subtypes functionally generated by introduction of the individual RAMPs.
A cell line expressing the human amylin receptor 3 (hAMYR3) was generated in the COS7 cellular background as stable clones. In brief, hCTR2 (GI:4502547) and hRAMP3 (GI:118572586) were amplified by PCR using primers encoding terminal restriction sites for subcloning. The 5′-end primers additionally encoded a near Kozak consensus sequence to ensure efficient translation. The fidelity of the DNA encoding the receptor was confirmed by DNA sequencing. The PCR products encoding the receptor were subcloned into a proprietary tri-cistronic mammalian expression vector with RAMP3, hCTR2 and neomycin (G418) resistance marker. The mammalian expression vector encoding the receptor was transfected into COS7 cells by a standard liposome transfection method. 48 hours post-transfection, cells were seeded for limited dilution cloning and selected with 1 mg/ml G418 in the culture medium. After 3 weeks, surviving colonies of hAMY3R-expressing cells were picked, propagated and tested in the amylin efficacy assay as described in Example 3 below. The functional generation of the amylin receptor phenotype was verified in the efficacy assay by a left-shifted efficacy response to amylin relative to monomeric calcitonin receptor, and one hAMYR3-expressing clone was chosen for compound profiling.
In vitro activity of test peptides at the hCTR2 and hAMYR3 receptors was assessed by measuring the induction of cAMP following stimulation of the receptor using the AlphaScreen® cAMP Assay kit from Perkin-Elmer.
Briefly, COS7 cells expressing hCTR2 (see Example 2, above) were seeded at 30-40,000 cells per well in 96-well microtiter plates coated with 0.01% poly-L-lysine, and grown for 1 day in culture in 100 μl growth medium [DMEM, 10% FCS, Penicillin (100 IU/ml), Streptomycin (100 μg/ml)]. On the day of analysis, growth medium was removed and the cells were washed once with 200 μl Tyrode buffer [Tyrode's Salts (9.6 g/I), 10 mM HEPES, pH 7.4]. Cells were incubated in 100 μl Tyrode buffer containing increasing concentrations of test peptides, 100 µM IBMX and 0.1% casein for 15 min at 37° C. The reaction was stopped by carefully decanting off the compound/buffer medium and replacing it with lysis/detection buffer (80 μl 0.1% w/v BSA, 5 mM HEPES, 0.3% v/v Tween-20 in deionized water). After incubation at room temperature for 10 min., the cAMP content of the resulting cell lysate was estimated according to the AlphaScreen® cAMP Assay manufacturer's instructions. EC50 values were estimated by computer-aided curve fitting using the 4-parameter logistic (4PL) non-linear model.

[2] = Assessment of physical stability (Thioflavin T fibrillation); type: physicochemical; parameters: key: FND = fibrillation not detected; FD = fibrillation detected; conditions: 1 mg/ml, 40° C., ThT; for Fibrillation pH 4.0 (Ac): 50 mM acetate buffer pH 4.0, 96 hours; for Fibrillation pH 7.0 (His): 50 mM histidine buffer pH 7.0, 96 hours; for Fibrillation pH 7.0 (Phos.): 50 mM phosphate buffer pH 7.0, 96 hours
Method in brief: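 1 mg/ml peptide with 40 μM ThT in 50 mM phosphate pH 7.0, 50 mM histidine pH 7.0 or 50 mM acetate pH 4.0, in triplicate. Fluorescence read every 10 min after 300 s agitation over 96 h at 40 °C. Lag-time (h) is the intersection of linear fits to stable and growth phases.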

[3] = target: T2, human calcitonin receptor (hCTR2) (Homo sapiens, UniProt P30988); test: hCTR2 cAMP assay (AlphaScreen) in COS7 cells; type: cell-based; conditions: cAMP induction, COS7 cells expressing hCTR2; Table 1; read-out: hCTR2 EC50
T2 construct: expressed in transfected cells
T2 sequence (P30988 25-474): T1 sequence (P30988 25-474)
Method in brief: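 Stable hCTR2 clone in RAMP-naïve COS7 cells stimulated 15 min at 37 °C with increasing peptide concentrations in Tyrode buffer pH 7.4 containing IBMX and 0.1% casein. cAMP in lysates measured by AlphaScreen; EC50 from 4-parameter logistic fit.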

[4] = Assessment of chemical stability (RP-HPLC normalized purity); type: physicochemical; conditions: 7 days, 40° C., Table 1
Method in brief: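 Peptides at 0.2 mg/ml in water adjusted to pH 4, 6, 7.5 or 9, incubated at 40° C for 7 days. Main-peak area-% by RP-HPLC (C8 ammonium formate or C18 TFA gradient, UV 220 nm), normalized to T=0 as 100.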

SMILES: CC[C@H](C)[C@@H](C(=O)N[C@@H](CC(C)C)C(=O)N[C@@H](CO)C(=O)N[C@@H](CO)C(=O)N[C@H](C(=O)N[C@@H](CCC(=O)O)C(=O)N[C@H](C(=O)NCC(=O)N[C@@H](CO)C(=O)N[C@@H](CCC(=O)O)C(=O)N[C@H](C(=O)N1CCC[C@H]1C(N)=O)[C@@H](C)O)C(C)C)[C@@H](C)O)N(C)C(=O)[C@H](C)NC(=O)CN(C)C(=O)[C@H](Cc1ccccc1)NC(=O)[C@H](CO)NC(=O)[C@H](CO)NC(=O)[C@H](CCCNC(=N)N)NC(=O)[C@@H](NC(=O)[C@H](CC(C)C)NC(=O)[C@H](Cc1ccccc1)NC(=O)[C@H](Cc1c[nH]cn1)NC(=O)[C@H](C)NC(=O)[C@H](CC(C)C)NC(=O)[C@H](CCCNC(=N)N)NC(=O)[C@H](CCC(=O)O)NC(=O)[C@@H](NC(=O)[C@H](C)NC(=O)[C@@H]1CSSC[C@H](NC(=O)[C@H](CCCNC(=N)N)NC(=O)CC[C@H](NC(=O)CCCCCCCCCCCCCCCCCCC(=O)O)C(=O)O)C(=O)NCC(=O)N[C@@H]([C@@H](C)O)C(=O)N[C@@H](C)C(=O)N[C@@H]([C@@H](C)O)C(=O)N1)[C@@H](C)O)C(C)C [Compound 22, [19CD]-isoGlu-R-C( )-GTAT-C( )-ATERLAHFLVRSSF-Gly(Me)-A-Ile(Me)-LSSTEVGSETP-NH2] ({C20 diacid-γGlu}-RCGTATCATERLAHFLVRSSF[Sar]A[NMeI]LSSTEVGSETP-NH2; disulfide 2-7)
- EC50 [1]: 0.59 nM
- Fibrillation pH 4.0 (Ac) [2]: FND
- Fibrillation pH 7.0 (His) [2]: FD
- Fibrillation pH 7.0 (Phos.) [2]: FND

SMILES: CC[C@H](C)[C@@H](C(=O)N[C@@H](CC(C)C)C(=O)N[C@@H](CO)C(=O)N[C@@H](CO)C(=O)N[C@H](C(=O)N[C@@H](CCC(=O)O)C(=O)N[C@H](C(=O)NCC(=O)N[C@@H](CO)C(=O)N[C@@H](CCC(=O)O)C(=O)N[C@H](C(=O)N1CCC[C@H]1C(N)=O)[C@@H](C)O)C(C)C)[C@@H](C)O)N(C)C(=O)[C@H](C)NC(=O)CN(C)C(=O)[C@H](Cc1ccccc1)NC(=O)[C@H](CO)NC(=O)[C@H](CO)NC(=O)[C@H](CCCNC(=N)N)NC(=O)[C@@H](NC(=O)[C@H](CC(C)C)NC(=O)[C@H](Cc1ccccc1)NC(=O)[C@H](Cc1c[nH]cn1)NC(=O)[C@H](C)NC(=O)[C@H](CC(C)C)NC(=O)[C@H](CCCNC(=N)N)NC(=O)[C@H](CCC(N)=O)NC(=O)[C@@H](NC(=O)[C@H](C)NC(=O)[C@@H]1CSSC[C@H](NC(=O)[C@H](CCCNC(=N)N)NC(=O)CC[C@H](NC(=O)CCCCCCCCCCCCCCCCCCC(=O)O)C(=O)O)C(=O)N[C@@H](CC(N)=O)C(=O)N[C@@H]([C@@H](C)O)C(=O)N[C@@H](C)C(=O)N[C@@H]([C@@H](C)O)C(=O)N1)[C@@H](C)O)C(C)C [Compound 24, [19CD]-isoGlu-R-C( )-NTAT-C( )-ATQRLAHFLVRSSF-Gly(Me)-A-Ile(Me)-LSSTEVGSETP-NH2] ({C20 diacid-γGlu}-RCNTATCATQRLAHFLVRSSF[Sar]A[NMeI]LSSTEVGSETP-NH2; disulfide 2-7)
- EC50 [1]: 0.19 nM
- EC50 [3]: 0.085 nM

SMILES: CC[C@H](C)[C@@H](C(=O)N[C@@H](CC(C)C)C(=O)N[C@@H](CO)C(=O)N[C@@H](CO)C(=O)N[C@H](C(=O)N[C@@H](CCC(=O)O)C(=O)N[C@H](C(=O)NCC(=O)N[C@@H](CO)C(=O)N[C@H](C(=O)N[C@H](C(=O)N1C[C@H](O)C[C@H]1C(N)=O)[C@@H](C)O)[C@@H](C)O)C(C)C)[C@@H](C)O)N(C)C(=O)[C@H](C)NC(=O)CN(C)C(=O)[C@H](Cc1ccccc1)NC(=O)[C@H](CO)NC(=O)[C@H](CO)NC(=O)[C@H](CCCNC(=N)N)NC(=O)[C@@H](NC(=O)[C@H](CC(C)C)NC(=O)[C@H](Cc1ccccc1)NC(=O)[C@H](Cc1c[nH]cn1)NC(=O)[C@H](C)NC(=O)[C@H](CC(C)C)NC(=O)[C@H](CCCNC(=N)N)NC(=O)[C@H](CCC(=O)O)NC(=O)[C@@H](NC(=O)[C@H](C)NC(=O)[C@@H]1CSSC[C@H](NC(=O)[C@H](CCCNC(=N)N)NC(=O)CC[C@H](NC(=O)CCCCCCCCCCCCCCCCCCC(=O)O)C(=O)O)C(=O)NCC(=O)N[C@@H]([C@@H](C)O)C(=O)N[C@@H](C)C(=O)N[C@@H]([C@@H](C)O)C(=O)N1)[C@@H](C)O)[C@@H](C)O [Compound 48, [19CD]-isoGlu-R-C( )-GTAT-C( )-ATERLAHFLTRSSF-Gly(Me)-A-Ile(Me)-LSSTEVGSTT-Hyp-NH2] ({C20 diacid-γGlu}-RCGTATCATERLAHFLTRSSF[Sar]A[NMeI]LSSTEVGSTT[Hyp]-NH2; disulfide 2-7)
- EC50 [1]: 0.26 nM
- Normalized purity after 7 days, 40° C., pH 4 ([4]; pH 4, 0.2 mg/ml): A (A = >90%)
- Normalized purity after 7 days, 40° C., pH 6 ([4]; pH 6, 0.2 mg/ml): A (A = >90%)
- Normalized purity after 7 days, 40° C., pH 7.5 ([4]; pH 7.5, 0.2 mg/ml): A (A = >90%)
- Normalized purity after 7 days, 40° C., pH 9 ([4]; pH 9, 0.2 mg/ml): A (A = >90%)
- Fibrillation pH 4.0 (Ac) [2]: FND
- Fibrillation pH 7.0 (His) [2]: FND
- Fibrillation pH 7.0 (Phos.) [2]: FND
